Measured values from US20220324835A1 (Nurix Therapeutics, Inc., priority 2018, published 2022).

Experiments:
[1] = target: T1, Cbl-b (Homo sapiens, UniProt Q13191); assay: Cbl-b inhibition assay (Cbl-b activity assay, FRET, Biological Example 1; 100 mM NaCl, 60 nM Src kinase); type: biochemical; settings: upper bound stated in text lists; read-out: IC50 values in the Cbl-b inhibition assay of Biological Example 1
Method in brief: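 N-terminally biotinylated Avi-tagged Cbl-b was mixed with Src kinase, UbcH5B covalently conjugated to Bodipy-fluorescein ubiquitin, and streptavidin-terbium. Src phosphorylation lets Cbl-b bind UbcH5B-Ub, giving terbium-fluorescein FRET; inhibition is read as loss of FRET signal.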

[2] = test system: T-cell; assay: IL-2 secretion from T-cells co-stimulated with anti-CD3 and anti-CD28 antibody (Biological Example 2); type: cell-based, human; settings: Homo sapiens, T-cell; for fold induction at 4 µM: 4 μM Cbl-b inhibitor
Method in brief: (§1)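 No assay protocol given; T-cells stimulated with anti-CD3 alone or anti-CD3 plus anti-CD28, with or without Cbl-b inhibitor. Activation read as IL-2 secretion or CD25 surface staining, expressed as fold over baseline from uninhibited cells […].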

[3] = test system: T-cell; assay: CD25 cell surface staining on T-cells co-stimulated with anti-CD3 and anti-CD28 antibody (Biological Example 2); type: cell-based, human; settings: Homo sapiens, T-cell; for fold induction at 4 µM: 4 μM Cbl-b inhibitor
Method in brief: as §1

[4] = test system: T-cell; assay: CD25 cell surface staining on T-cells stimulated with anti-CD3 antibody alone (Biological Example 2); type: cell-based, human; settings: T-cell, read-out: CD25 staining Anti-CD3 stimulation; for fold induction at 1 µM: 1 μM Cbl-b inhibitor; for fold induction at 8 µM: 8 μM Cbl-b inhibitor
[5] = target: T1, Cbl-b; assay: Cbl-b activity assay (Cbl-b inhibition assay), TR-FRET of Cbl-b interaction with UbcH5B-Ub; type: biochemical; settings: assay buffer with 100 mM NaCl, 60 nM Src kinase; read-out: Cbl-b activity IC50
Method in brief: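 TR-FRET readout of Cbl-b binding to Bodipy-fluorescein N-terminally labeled Ub conjugated to UbcH5B C85K, measured with compound present. After compound incubation, 60 nM Src kinase with 1 mM ATP and 5 mM MgCl2 (final) was added for 1.5 h, then a further 1 h incubation; asterisked values used 50 mM NaCl buffer and 30 nM Src.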

[6] = fold change over baseline, 0.3 μM Cbl-b inhibitor, primary human total T-cells, read-out: IL-2 secretion Anti-CD3/Anti-CD28 stimulation
[7] = fold change over baseline, 1 μM Cbl-b inhibitor, primary human total T-cells, read-out: IL-2 secretion Anti-CD3/Anti-CD28 stimulation
[8] = fold change over baseline, primary human total T-cells, read-out: IL-2 secretion Anti-CD3/Anti-CD28 stimulation
[9] = fold change over baseline, 0.3 μM Cbl-b inhibitor, primary human total T-cells, read-out: CD25 staining Anti-CD3/Anti-CD28 stimulation
[10] = fold change over baseline, 1 μM Cbl-b inhibitor, primary human total T-cells, read-out: CD25 staining Anti-CD3/Anti-CD28 stimulation
[11] = fold change over baseline, primary human total T-cells, read-out: CD25 staining Anti-CD3/Anti-CD28 stimulation
[12] = fold change over baseline, primary human total T-cells

T1 sequence (Q13191 36-427): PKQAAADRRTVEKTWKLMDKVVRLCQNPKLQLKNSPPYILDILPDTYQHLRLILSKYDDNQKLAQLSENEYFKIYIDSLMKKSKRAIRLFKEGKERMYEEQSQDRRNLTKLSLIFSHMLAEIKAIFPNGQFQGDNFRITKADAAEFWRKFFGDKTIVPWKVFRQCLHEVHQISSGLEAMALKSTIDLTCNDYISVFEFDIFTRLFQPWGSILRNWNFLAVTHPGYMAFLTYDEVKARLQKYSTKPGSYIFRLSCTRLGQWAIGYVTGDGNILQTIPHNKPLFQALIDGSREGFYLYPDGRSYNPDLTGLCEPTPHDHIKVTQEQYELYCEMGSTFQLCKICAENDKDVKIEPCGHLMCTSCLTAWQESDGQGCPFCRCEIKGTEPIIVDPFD

Row | Compound | IC50 [1] [µM] | fold induction at 0.3 µM [2, 6] | fold induction at 1 µM [2, 7] | fold induction at 4 µM [2, 8] | fold induction at 0.3 µM [3, 9] | fold induction at 1 µM [3, 10] | fold induction at 4 µM [3, 11] | fold induction at 1 µM [4, 12] | fold induction at 8 µM [4, 12] | IC50 [5] [µM] | fold induction at 0.3 µM ([2]; 0.3 μM Cbl-b inhibitor, fold change over baseline (anti-CD3/anti-CD28 stimulated T-cells without inhibitor), read-out: IL-2 secretion Anti-CD3/Anti-CD28 stimulation) | fold induction at 1 µM ([2]; 1 μM Cbl-b inhibitor, fold change over baseline (anti-CD3/anti-CD28 stimulated T-cells without inhibitor), read-out: IL-2 secretion Anti-CD3/Anti-CD28 stimulation) | fold induction at 0.3 µM ([3]; 0.3 μM Cbl-b inhibitor, fold change over baseline (anti-CD3/anti-CD28 stimulated T-cells without inhibitor), read-out: CD25 staining Anti-CD3/Anti-CD28 stimulation) | fold induction at 1 µM ([3]; 1 μM Cbl-b inhibitor, fold change over baseline (anti-CD3/anti-CD28 stimulated T-cells without inhibitor), read-out: CD25 staining Anti-CD3/Anti-CD28 stimulation) | fold induction at 1 µM ([4]; Homo sapiens, fold change over baseline (anti-CD3/anti-CD28 stimulated T-cells without inhibitor)) | fold induction at 0.3 µM ([2]; 0.3 μM compound, primary human total T-cells, baseline = anti-CD3/anti-CD28 stimulated cells without inhibitor, read-out: IL-2 secretion, Anti-CD3/Anti-CD28 stimulation, fold change over baseline) | fold induction at 1 µM ([2]; 1 μM compound, primary human total T-cells, baseline = anti-CD3/anti-CD28 stimulated cells without inhibitor, read-out: IL-2 secretion, Anti-CD3/Anti-CD28 stimulation, fold change over baseline) | fold induction at 0.3 µM ([3]; 0.3 μM compound, primary human total T-cells, baseline = anti-CD3/anti-CD28 stimulated cells without inhibitor, read-out: CD25 staining, Anti-CD3/Anti-CD28 stimulation, fold change over baseline) | fold induction at 1 µM ([3]; 1 μM compound, primary human total T-cells, baseline = anti-CD3/anti-CD28 stimulated cells without inhibitor, read-out: CD25 staining, Anti-CD3/Anti-CD28 stimulation, fold change over baseline)
1 | C[C@H](Cc1nncn1C)c1cccc(NC(=O)c2cc(O[C@@H]3CC[C@@H](O)C3)ccn2)c1 (relative stereo) [Compound 205, trans-4-(3-hydroxycyclopentyloxy)-N-(3-((R)-1-(4-methyl-4H-1,2,4-triazol-3-yl)propan-2-yl)phenyl)picolinamide] | ≤ 0.1 | 2.51 to 5 | 2.51 to 5 | 5 to 7.5 | 1.01 to 1.3 | 1.01 to 1.3 | 1.31 to 1.5 | 0.801 to 1 | > 1 | < 0.1 | – | – | – | – | – | – | – | – | –
2 | C[C@H](c1cc2c(c(C(F)(F)F)c1)CN(c1cccc(C3([C@H](F)c4nncn4C)COC3)c1)C2=O)N1CCC2(CC2)C1 (stereo in doubt) [Example 575, 6-((R)-1-(5-Azaspiro[2.4]heptan-5-yl)ethyl)-2-(3-(3-((S)-fluoro(4-methyl-4H-1,2,4-triazol-3-yl)methyl)oxetan-3-yl)phenyl)-4-(trifluoromethyl)isoindolin-1-one] | ≤ 0.1 | – | – | – | – | – | – | – | – | < 0.1 | > 7.5 | > 7.5 | 1.31 to 1.5 | 1.31 to 1.5 | > 1 | – | – | – | –
3 | Cc1ccc(C(=O)Nc2cccc([C@H](C)Sc3nncn3C)c2)nc1C1CC1 [Compound 54, (S)-6-cyclopropyl-5-methyl-N-(3-(1-((4-methyl-4H-1,2,4-triazol-3-yl)thio)ethyl)phenyl)picolinamide] | ≤ 0.1 | 1.01 to 2.5 | 2.51 to 5 | > 7.5 | 1.01 to 1.3 | 1.01 to 1.3 | 1.01 to 1.3 | 0.601 to 0.8 | 0.801 to 1 | < 0.1 | – | – | – | – | – | – | – | – | –
4 | Cc1cc(C(=O)Nc2cccc([C@H](C)Sc3nncn3C)c2)nc(C(F)(F)F)c1 [Compound 65, (S)-4-methyl-N-(3-(1-((4-methyl-4H-1,2,4-triazol-3-yl)thio)ethyl)phenyl)-6-(trifluoromethyl)picolinamide] | ≤ 0.1 | 1.01 to 2.5 | 1.01 to 2.5 | 2.51 to 5 | 1.01 to 1.3 | 1.01 to 1.3 | 1.01 to 1.3 | 0.601 to 0.8 | > 1 | < 0.1 | – | – | – | – | – | – | – | – | –
5 | C[C@H](Sc1nncn1C)c1cccc(NC(=O)c2cc(C3CC3)cc(C(F)(F)F)n2)c1 [Compound 67, (S)-4-cyclopropyl-N-(3-(1-((4-methyl-4H-1,2,4-triazol-3-yl)thio)ethyl)phenyl)-6-(trifluoromethyl)picolinamide] | ≤ 0.1 | 1.01 to 2.5 | 1.01 to 2.5 | 2.51 to 5 | 1.01 to 1.3 | 1.01 to 1.3 | 1.01 to 1.3 | 0.801 to 1 | > 1 | < 0.1 | – | – | – | – | – | – | – | – | –
6 | C[C@H](Sc1nncn1C)c1cccc(NC(=O)c2cccc(C3CC3)n2)c1 [Compound 72, (S)-6-cyclopropyl-N-(3-(1-((4-methyl-4H-1,2,4-triazol-3-yl)thio)ethyl)phenyl)picolinamide] | ≤ 0.1 | 1.01 to 2.5 | 2.51 to 5 | 2.51 to 5 | 1.31 to 1.5 | 1.51 to 1.75 | 1.51 to 1.75 | < 0.6 | 0.801 to 1 | < 0.1 | – | – | – | – | – | – | – | – | –
7 | C[C@H](Sc1nncn1C)c1cccc(NC(=O)c2ccnc(C3CC3)n2)c1 [Compound 76, 2-cyclopropyl-A-[3-[(1S)-1-[(4-methyl-1,2,4-triazol-3-yl)sulfanyl]ethyl]phenyl]pyrimidine-4-carboxamide] | ≤ 0.1 | < 1 | 2.51 to 5 | 5 to 7.5 | 1.01 to 1.3 | 1.01 to 1.3 | 1.31 to 1.5 | 0.601 to 0.8 | > 1 | < 0.1 | – | – | – | – | – | – | – | – | –
8 | C[C@H](Sc1nncn1C)c1cccc(NC(=O)c2ccc(CO)c(C3CC3)n2)c1 [Compound 89, 6-cyclopropyl-5-(hydroxymethyl)-N-[3-[(1S)-1-[(4-methyl-1,2,4-triazol-3-yl)sulfanyl]ethyl]phenyl]pyridine-2-carboxamide] | ≤ 0.1 | 1.01 to 2.5 | 2.51 to 5 | 5 to 7.5 | 1.01 to 1.3 | 1.01 to 1.3 | 1.31 to 1.5 | < 0.6 | 0.801 to 1 | < 0.1 | – | – | – | – | – | – | – | – | –
9 | C[C@H](Sc1nncn1C)c1cccc(NC(=O)c2ccc(F)c(C3CC3)n2)c1 [Compound 91, 6-Cyclopropyl-5-fluoro-N-[3-[(1S)-1-[(4-methyl-1,2,4-triazol-3-yl)sulfanyl]ethyl]phenyl]pyridine-2-carboxamide] | ≤ 0.1 | 1.01 to 2.5 | 2.51 to 5 | > 7.5 | < 1 | < 1 | 1.01 to 1.3 | 0.601 to 0.8 | > 1 | < 0.1 | – | – | – | – | – | – | – | – | –
10 | C[C@H](Sc1nncn1C)c1cccc(NC(=O)c2ccc(C#N)c(C3CC3)n2)c1 [Compound 92, 5-cyano-6-cyclopropyl-N-[3-[(1S)-1-[(4-methyl-1,2,4-triazol-3-yl)sulfanyl]ethyl]phenyl]pyridine-2-carboxamide] | ≤ 0.1 | 1.01 to 2.5 | 2.51 to 5 | 5 to 7.5 | 1.01 to 1.3 | 1.31 to 1.5 | 1.31 to 1.5 | 0.601 to 0.8 | > 1 | < 0.1 | – | – | – | – | – | – | – | – | –
11 | COc1ccc(C(=O)Nc2cccc([C@H](C)Sc3nncn3C)c2)nc1C1CC1 [Compound 93, 6-cyclopropyl-5-methoxy-N-[3-[(1S)-1-[(4-methyl-1,2,4-triazol-3-yl)sulfanyl]ethyl]phenyl]pyridine-2-carboxamide] | ≤ 0.1 | 1.01 to 2.5 | 1.01 to 2.5 | 2.51 to 5 | 1.01 to 1.3 | 1.01 to 1.3 | 1.01 to 1.3 | 0.601 to 0.8 | > 1 | < 0.1 | – | – | – | – | – | – | – | – | –
12 | C[C@H](c1cc2c(c(C(F)(F)F)c1)CN(c1cccc(C3(Cc4nncn4C)COC3)c1)C2=O)N1CCC(C)(F)CC1 [Example 553b, (R)-6-(1-(4-fluoro-4-methylpiperidin-1-yl)ethyl)-2-(3-(3-((4-methyl-4H-1,2,4-triazol-3-yl)methyl)oxetan-3-yl)phenyl)-4-(trifluoromethyl)isoindolin-1-one] | ≤ 0.1 | – | – | – | – | – | – | – | – | < 0.1 | – | – | – | – | – | > 7.5 | > 7.5 | > 1.76 | > 1.76
